The values below are quoted from earlier work in PMC5225183, “Fingerprinting of neurotoxic compounds using a mouse embryonic stem cell dual luminescence reporter assay” (Archives of Toxicology, 2016).

Bounds are passed on as bounds.

One data set deals with mice. More on the design: method as in https://www.spectrumchemical.com/MSDS/TCI-G0334.pdf. Particulars: ref https://www.spectrumchemical.com/MSDS/TCI-G0334.pdf; cited from earlier work.
In data set [1] the test system is neuroepithelial precursor cell migration. Set-up: method as in Zimmer et al. [2012]. Particulars: ref Zimmer et al. [2012]; cited from earlier work.

By LD50 is commonly meant the dose at which mortality reaches 50%. Regarding `COC1=C2C[C@@H](C)C[C@H](OC)[C@H](O)[C@@H](C)/C=C(\C)[C@H](OC(N)=O)[C@@H](OC)/C=C\C=C(/C)C(=O)NC(=CC1=O)C2=O` [Geldanamycin], in the data set with mice, the LD50 is on record as 1 mg/kg.
For the compound `CCCC(CCC)C(=O)O` [Valproic acid], the “concentration not affecting neuroepithelial precursor cell migration” value in data set [1] is over 1 mM.
